From US20240209355A1, “NUCLEIC ACID BINDING PROTEIN FORMULATIONS AND USES THEREOF” (Spotlight Therapeutics, priority 2020, published 2024)
“And” between values parts separate entries of the source, which are not always exact repeats. Identical values can stand only once.

What was measured:
[1] = test system: primary human T cells; assay: Ex vivo editing by co-incubation in buffers with additives, loss of surface CD47 by flow cytometry; type: cell-based; details: for TAGE editing efficacy: additive in combination with NaCl; for genome editing (percentage of edited T cells): 1 hour, increasing NaCl (185-400 mM) and/or glycerol (1-15% w/v); for combined effect of glycerol and sodium chloride on genome editing: e.g. 300 mM NaCl with 12.5% glycerol
Method: In this example, the impact of glycerol and salt on ex vivo editing by TAGE agents was assessed. Ribonucleoproteins were prepared from TAGE agents including 4×NLS-Cas9-2×NLS. A guide RNA targeting CD47 was associated with the respective TAGE agents to form ribonucleoproteins. […] The cells were washed after one hour to remove the additives and RNPs. The percentage of T cells that were edited under each condition was measured using a phenotypic readout detecting the loss of surface CD47 by flow cytometry. Additionally, the levels of live cells per mL 24 hours after co-incubation in the indicated buffer was assessed for each buffer condition.
In this example, the impact of salt and various polyols (e.g., sugar alcohols) or sugar on ex vivo editing by TAGE agents was assessed. Ribonucleoproteins were prepared from TAGE agents including 4×NLS-Cas9-2×NLS. A guide RNA targeting CD47 was associated with the respective TAGE agents to form ribonucleoproteins. […] Buffers having different salt concentrations (185 mM NaCl or 300 mM NaCl) and sugar alcohol or sugar concentrations ([…], 0.8 M, 1.2 M, 1.6 M, 2.0 M, or 2.4 M) were assessed. The cells were washed after one hour to remove additives and RNPs. The percentage of cells that were edited under each condition was measured using a phenotypic readout detecting the loss of surface CD47 by flow cytometry. Additionally, the levels of live cells per mL 24 hours after co-incubation in the indicated buffer was assessed for each buffer condition.
In this example, the impact of a cationic polymer (e.g., protamine) with or without glycerol on ex vivo editing by RNP TAGE agents was assessed. Ribonucleoproteins were prepared from TAGE agents including 4×NLS-Cas9-2×NLS or AsCas12a. A guide RNA targeting CD47 was associated with the respective TAGE agents to form ribonucleoproteins. […] The cells were washed after one hour to remove additives and RNPs. The percentage of T cells that were edited under each condition was measured using a phenotypic readout detecting the loss of surface CD47 by flow cytometry. Additionally, the levels of light scattering at 340 nm was assessed to detect aggregate formation. […]

[2] = test system: primary human T cells; assay: Editing by antibody TAGE or CPP-TAGE in T cell media with sugar, sugar alcohol or salt additive, loss of surface CD47 by flow cytometry; type: cell-based
Method: RNPs at the indicated concentration were co-incubated with primary human T cells for 1 hour in buffer including 0.5 M sucrose. The cells were washed after one hour to remove additives and RNPs. The editing percentage under each condition was measured using a phenotypic readout detecting the loss of surface CD47 by flow cytometry.
Five different TAGE agent were tested. […] The cells were washed after one hour to remove additives and RNPs. The percentage of cells that were edited under each condition was measured using a phenotypic readout detecting the loss of surface CD47 by flow cytometry. Each data point represents the mean of biological triplicates, and the error bars represent the standard deviation of the mean.
The cells were washed after one hour to remove additives and RNPs. The percentage of cells that were edited under each condition was measured using a phenotypic readout detecting the loss of surface CD47 by flow cytometry. Each data point represents a biological replicate. […]
RNP at the indicated concentration was co-incubated with primary human T cells for 1 hour in T cell media with no additive (Baseline) or in T cell media with 0.5 M sucrose. […] The percentage of cells that were edited under each condition was measured using a phenotypic readout detecting the loss of surface CD47 by flow cytometry. […]

[3] = test system: T cells; assay: Ex vivo editing with chloroquine, loss of surface CD47 by flow cytometry; type: cell-based, human; details: chloroquine 10, 30 or 100 μM for 24 hours after 1 hour RNP co-incubation with PBMCs, vs 0 μM
Method: FIG. 9 graphically depicts the results of an ex vivo editing assay in which TAGE agents including Cas9-2×NLS:sgBFP, 4×NLS-Cas9-2×NLS, Cas9-2×NLS-SpyCatcher-4×NLS, or IL-2[-SpyTag]:Cas9-2×NLS-SpyCatcher-4×NLS were co-incubated with primary human T cells and assessed for editing in buffers including different levels of chloroquine (0 μM, 10 μM, 30 μM, or 100 μM). A guide RNA targeting CD47 was associated with the respective TAGE agents to form ribonucleoproteins, and the ribonucleoproteins were co-incubated with T cells to test for editing. Editing was measured using a phenotypic readout measuring the loss of surface CD47 using flow cytometry.
In this example, the impact of chloroquine on ex vivo editing by TAGE agents was assessed. RNP TAGE agents including Cas9-2×NLS:sgBFP, 4×NLS-Cas9-2×NLS, Cas9-2×NLS-SpyCatcher-4×NLS, or IL-2-SpyTag:Cas9-2×NLS-SpyCatcher-4×NLS. A guide RNA targeting CD47 (or a non-targeting control, sgBFP) was associated with the respective TAGE agents to form the ribonucleoproteins. The RNPs were co-incubated with PBMCs for 1 hour followed by incubation with 0 μM chloroquine, 10 μM chloroquine, 30 μM chloroquine, or 100 μM chloroquine for 24 hours. The percentage of T cells that were edited by each TAGE was measured using a phenotypic readout detecting the loss of surface CD47 by flow cytometry.

[4] = test system: dsDNA target; assay: In vitro DNA cleavage of TAGE agent RNPs with re-folded or unfolded sgRNA; type: biochemical; details: PBS, relative to Cas9(C80A)-2×NLS
Method: To assess DNA cleavage, 100 nM of each Cas9 RNP was incubated for 30 minutes at 37° C. with 100 nM of a dsDNA target. DNA cleavage was normalized to DNA cleavage achieved through incubation in buffer alone (i.e., untreated RNP). 1 μl of 20 mg/ml proteinase K was added to the reaction and incubated for 15 minutes at 50° C. The quenching reaction was held at 4° C. prior to separation on a Fragment Analyzer capillary electrophoresis (CE) instrument. 2 μl of the reaction was diluted with 22 μl of TE buffer and analyzed by capillary electrophoresis, per the manufacturer's recommendations. Cleavage reactions were run in triplicate, and background was subtracted from the band intensities. Percent cleavage was quantified with the following equation: % cleavage=(total mass cleaved product)/(total mass of substrate). The results are expressed as % cleavage relative to untreated RNP.
Next, the impact of re-folded gRNA on the in vitro DNA cleavage activity of TAGE agent RNPs was assessed.

[5] = test system: primary human T cells; assay: Editing by TAGE after pre-incubation of cells with inhibitors, loss of surface CD47 by flow cytometry; type: cell-based; details: 30 min pre-incubation; for editing of primary T cells by TAGE: DMA, EIPA 100 μM, Cyto D 20 μM, Lat A 10 μM, 3 μM TAGE26, 0.35 μM AB27-TAGE26 or AB2-TAGE26; for editing of primary T cells by an antibody TAGE: Dynasore 80 μM
Method: Antibodies were conjugated to Cas9 using the SpyTag2/SpyCatcher system and a guide RNA targeting CD47 was associated with the respective TAGE agents to form RNPs. Primary human T cells were pre-incubated with the indicated drug for 30 minutes. Then, RNPs were added to the cells at the indicated concentration and co-incubated for an additional hour. The cells were washed after one hour to remove inhibitors and RNPs. The percentage of cells that were edited under each condition was measured using a phenotypic readout detecting the loss of surface CD47 by flow cytometry.
Each data point represents a biological replicate. For each group, the horizontal line represents the mean and the error bars represent the standard deviation of the mean. With respect to the descriptions in FIG. 18, NT guide is a TAGE with non-targeting guide RNA; MeOH is methanol (a control for DMA and EIPA; used at 0.5% v/v; DMSO is dimethyl sulfoxide, a control for Cyto D and Lat A (used at 1% v/v); DMA is 5-(N,N-dimethyl)-amiloride, an inhibitor of NHE1 (used at 100 μM); EIPA is 5-(N-ethyl-N-isopropyl)-amiloride, an inhibitor of NHE1, (used at 100 μM); Cyto D is cytochalasin D, an inhibitor of F-actin polymerization (used at 20 μM); and Lat A is latrunculin A, an inhibitor of F-actin polymerization (used at 10 μM).
Antibodies were conjugated to Cas9 using the SpyTag/SpyCatcher system and a guide RNA targeting CD47 was associated with the respective TAGE agents to form an RNP. Primary human T cells were pre-incubated with the indicated drug (nystatin or Dynasore) for 30 minutes. Then, RNPs were added to cells at the indicated concentration and co-incubated for an additional hour. The cells were washed after one hour to remove inhibitors and RNPs. The percentage of cells that were edited under each condition was measured using a phenotypic readout detecting the loss of surface CD47 by flow cytometry. Each data point represents a biological replicate. For each group, the horizontal line represents the mean and the error bars represent the standard deviation of the mean. NT guide stood for TAGE with non-targeting guide RNA. DMSO is dimethylsulfoxide, a control for nystatin and Dynasore, which was used at 2% v/v. Dynasore is an inhibitor of dynamin, which was used at 80 μM. Nystatin was used at 108 μM.

[6] = Light scattering at 340 nm to detect aggregate formation with protamine; type: physicochemical; details: protamine in buffer
Method: In this example, the impact of a cationic polymer (e.g., protamine) with or without glycerol on ex vivo editing by RNP TAGE agents was assessed. Ribonucleoproteins were prepared from TAGE agents including 4×NLS-Cas9-2×NLS or AsCas12a. A guide RNA targeting CD47 was associated with the respective TAGE agents to form ribonucleoproteins. […] The cells were washed after one hour to remove additives and RNPs. The percentage of T cells that were edited under each condition was measured using a phenotypic readout detecting the loss of surface CD47 by flow cytometry. Additionally, the levels of light scattering at 340 nm was assessed to detect aggregate formation.

## OC[C@H]1O[C@@](CO)(O[C@H]2O[C@H](CO)[C@@H](O)[C@H](O)[C@H]2O)[C@@H](O)[C@@H]1O [sucrose]
[1]; 3.75 μM 4×NLS-Cas9-2×NLS RNP
  TAGE editing efficacy: can increase TAGE editing efficacy
[2]; 0.5 M sucrose
  lowest TAGE concentration at which editing is enabled: 0.7 nM
[2]; 0.5 M sucrose as formulation additive
  effect of additive on editing: improves editing

## CCN(CC)CCCC(C)Nc1ccnc2cc(Cl)ccc12 (stereo not shown) [chloroquine]
[3]
  editing of T cells by TAGE RNPs: increased editing of T cells

## 4×NLS-Cas9(C80A)-2×NLS: TAGE agent: Cas9(C80A) with four N-terminal and two C-terminal NLS
[4]
  DNA cleavage activity: reduced activity in PBS

## OC[C@@H](O)[C@H](O)[C@@H](O)CO [xylitol]
[1]; 3.75 μM 4×NLS-Cas9-2×NLS RNP, 300 mM NaCl and ≥1 M xylitol
  percentage of edited cells: over 50%
[1]; 3.75 μM 4×NLS-Cas9-2×NLS RNP
  TAGE editing efficacy: can increase TAGE editing efficacy

## CN(C)c1nc(N)c(C(=O)NC(=N)N)nc1Cl [DMA, 5-(N,N-dimethyl)-amiloride]
[5]
  editing of primary T cells by TAGE: increased

## C/C1=C/C(=O)O[C@@H]2C[C@@H](CC[C@H](C)/C=C\C=C\CC1)O[C@@](O)([C@@H]1CSC(=O)N1)C2 [Lat A, latrunculin A]
[5]
  editing of primary T cells by TAGE: decreased

## C=C1[C@@H](C)[C@H]2[C@H](Cc3ccccc3)NC(=O)[C@]23[C@H](OC(C)=O)/C=C/[C@@](C)(O)C(=O)[C@@H](C)C/C=C/[C@H]3[C@@H]1O [Cyto D, cytochalasin D]
[5]
  editing of primary T cells by TAGE: decreased

## CCN(c1nc(N)c(C(=O)N=C(N)N)nc1Cl)C(C)C [EIPA, 5-(N-ethyl-N-isopropyl)-amiloride]
[5]
  editing of primary T cells by TAGE: increased

## [Cl-].[Na+] [sodium chloride]
[1]; 3.75 μM 4×NLS-Cas9-2×NLS RNP
  genome editing (percentage of edited T cells): increased genome editing in cells
  combined effect of glycerol and sodium chloride on genome editing: synergistic effect on genome editing

## O=C(N/N=C/c1ccc(O)c(O)c1)c1cc2ccccc2cc1O [dynasore, Dynasore]
[5]; nystatin 108 μM
  editing of primary T cells by an antibody TAGE: not increased

## poly-glutamic acid [PGA]
[1]; 3.75 μM Cas9 or AsCas12a RNP, PGA 1500-5500 Da or 15,000 Da, also at lower concentrations
  editing by co-incubation: inhibited editing by co-incubation

## protamine
[1]; protamine in buffer
  editing by Cas12a: limited benefits for Cas12a editing
[1]; protamine in buffer, low glycerol concentrations
  editing by 4×NLS-Cas9-2×NLS: increased editing
[6]
  aggregation of Cas12a (340 nm light scattering): did not cause appreciable Cas12a aggregation
[6]; low glycerol concentrations
  aggregation of 4×NLS-Cas9-2×NLS (340 nm light scattering): caused aggregation

## C[C@@H]1[C@H](O)[C@@H](C)/C=C/C=C/CC/C=C/C=C/C=C/C=C/C(O[C@H]2O[C@H](C)[C@@H](O)[C@H](N)[C@@H]2O)CC2O[C@](O)(CC(O)C(O)CCC(O)CC(O)CC(O)CC(=O)O[C@H]1C)CC(O)C2C(=O)O (stereo partly shown) [nystatin]
[5]; nystatin 108 μM
  editing by TAGE containing a non-targeting antibody (AB27-TAGE26): did not increase editing
  editing of primary T cells by an antibody TAGE: increased

## OCC(O)CO [glycerol]
[1]; 3.75 μM 4×NLS-Cas9-2×NLS RNP
  genome editing (percentage of edited T cells): increased genome editing in cells
  combined effect of glycerol and sodium chloride on genome editing: synergistic effect on genome editing
  TAGE editing efficacy: can increase TAGE editing efficacy
[1]; human T cells, depending on the TAGE and the salt concentration
  glycerol concentration at peak editing ex vivo: 7-10% and 15-16%
